Assay results taken from ChEMBL document CHEMBL4308841, “Synthesis, in vitro antiproliferative activity, and kinase inhibitory effects of pyrazole-containing diarylureas and diarylamides” (Eur J Med Chem, 2018).

Tests used:
[1] = test system: MDA-MB-231; assay: Growth inhibition of human MDA-MB-231 cells assessed as cell growth at 1 uM incubated for 48 hrs by sulforhodamine B assay relative to control; format: functional; settings: MDA-MB-231, 48 h, read-out: Activity
[2] = test system: SK-MEL-28; assay: Growth inhibition of human SK-MEL-28 cells assessed as cell growth at 0.1 uM incubated for 48 hrs by sulforhodamine B assay relative to control; format: functional; settings: SK-MEL-28, 48 h, read-out: Activity
[3] = test system: IGROV-1; assay: Growth inhibition of human IGROV1 cells assessed as cell growth at 0.1 uM incubated for 48 hrs by sulforhodamine B assay relative to control; format: functional; settings: IGROV-1, 48 h, read-out: Activity
[4] = test system: SK-MEL-5; assay: Growth inhibition of human SK-MEL-5 cells assessed as cell growth at 0.01 uM incubated for 48 hrs by sulforhodamine B assay relative to control; format: functional; settings: SK-MEL-5, 48 h, read-out: Activity
[5] = test system: OVCAR-8; assay: Growth inhibition of human OVCAR8 cells assessed as cell growth at 1 uM incubated for 48 hrs by sulforhodamine B assay relative to control; format: functional; settings: OVCAR-8, 48 h, read-out: Activity
[6] = test system: A498; assay: Growth inhibition of human A498 cells assessed as cell growth at 0.01 uM incubated for 48 hrs by sulforhodamine B assay relative to control; format: functional; settings: A498, 48 h, read-out: Activity
[7] = test system: SNB-75; assay: Growth inhibition of human SNB75 cells assessed as cell growth at 0.01 uM incubated for 48 hrs by sulforhodamine B assay relative to control; format: functional; settings: SNB-75, 48 h, read-out: Activity
[8] = test system: SK-OV-3; assay: Growth inhibition of human SKOV3 cells incubated for 48 hrs by sulforhodamine B assay; format: functional, cell-based; settings: SK-OV-3, 48 h
[9] = test system: TK-10; assay: Growth inhibition of human TK10 cells assessed as cell growth at 10 uM incubated for 48 hrs by sulforhodamine B assay relative to control; format: functional; settings: TK-10, 48 h, read-out: Activity
[10] = test system: SK-OV-3; assay: Growth inhibition of human SKOV3 cells assessed as cell growth at 0.01 uM incubated for 48 hrs by sulforhodamine B assay relative to control; format: functional; settings: SK-OV-3, 48 h, read-out: Activity
[11] = test system: UACC-257; assay: Growth inhibition of human UACC257 cells incubated for 48 hrs by sulforhodamine B assay; format: functional, cell-based; settings: UACC-257, 48 h
[12] = test system: HCT-116; assay: Growth inhibition of human HCT116 cells assessed as cell growth at 0.01 uM incubated for 48 hrs by sulforhodamine B assay relative to control; format: functional; settings: HCT-116, 48 h, read-out: Activity
[13] = test system: MOLT-4; assay: Growth inhibition of human MOLT4 cells incubated for 48 hrs by sulforhodamine B assay; format: functional, cell-based; settings: MOLT-4, 48 h
[14] = test system: A549; assay: Growth inhibition of human A549/ATCC cells incubated for 48 hrs by sulforhodamine B assay; format: functional, cell-based; settings: A549, 48 h
[15] = test system: DU-145; assay: Growth inhibition of human DU145 cells incubated for 48 hrs by sulforhodamine B assay; format: functional, cell-based; settings: DU-145, 48 h
[16] = test system: SK-MEL-5; assay: Growth inhibition of human SK-MEL-5 cells assessed as cell growth at 1 uM incubated for 48 hrs by sulforhodamine B assay relative to control; format: functional; settings: SK-MEL-5, 48 h, read-out: Activity
[17] = test system: MDA-MB-435; assay: Growth inhibition of human MDA-MB-435 cells assessed as cell growth at 0.01 uM incubated for 48 hrs by sulforhodamine B assay relative to control; format: functional; settings: MDA-MB-435, 48 h, read-out: Activity
[18] = test system: SK-OV-3; assay: Growth inhibition of human SKOV3 cells assessed as cell growth at 1 uM incubated for 48 hrs by sulforhodamine B assay relative to control; format: functional; settings: SK-OV-3, 48 h, read-out: Activity
[19] = test system: K562; assay: Growth inhibition of human K562 cells assessed as cell growth at 0.1 uM incubated for 48 hrs by sulforhodamine B assay relative to control; format: functional; settings: K562, 48 h, read-out: Activity
[20] = test system: SF-295; assay: Growth inhibition of human SF295 cells assessed as cell growth at 100 uM incubated for 48 hrs by sulforhodamine B assay relative to control; format: functional; settings: SF-295, 48 h, read-out: Activity
[21] = test system: NCI-H226; assay: Growth inhibition of human NCI-H226 cells assessed as cell growth at 1 uM incubated for 48 hrs by sulforhodamine B assay relative to control; format: functional; settings: NCI-H226, 48 h, read-out: Activity
[22] = test system: COLO 205; assay: Growth inhibition of human COLO205 cells assessed as cell growth at 100 uM incubated for 48 hrs by sulforhodamine B assay relative to control; format: functional; settings: COLO 205, 48 h, read-out: Activity
[23] = test system: OVCAR-3; assay: Growth inhibition of human OVCAR3 cells assessed as cell growth at 0.1 uM incubated for 48 hrs by sulforhodamine B assay relative to control; format: functional; settings: OVCAR-3, 48 h, read-out: Activity
[24] = test system: DU-145; assay: Growth inhibition of human DU145 cells assessed as cell growth at 0.01 uM incubated for 48 hrs by sulforhodamine B assay relative to control; format: functional; settings: DU-145, 48 h, read-out: Activity
[25] = test system: A549; assay: Growth inhibition of human A549/ATCC cells assessed as cell growth at 0.1 uM incubated for 48 hrs by sulforhodamine B assay relative to control; format: functional; settings: A549, 48 h, read-out: Activity
[26] = test system: SNB-75; assay: Growth inhibition of human SNB75 cells incubated for 48 hrs by sulforhodamine B assay; format: functional, cell-based; settings: SNB-75, 48 h
[27] = test system: K562; assay: Growth inhibition of human K562 cells assessed as cell growth at 100 uM incubated for 48 hrs by sulforhodamine B assay relative to control; format: functional; settings: K562, 48 h, read-out: Activity
[28] = test system: SF-268; assay: Growth inhibition of human SF268 cells assessed as cell growth at 100 uM incubated for 48 hrs by sulforhodamine B assay relative to control; format: functional; settings: SF-268, 48 h, read-out: Activity
[29] = test system: RPMI-8226; assay: Growth inhibition of human RPMI8226 cells assessed as cell growth at 100 uM incubated for 48 hrs by sulforhodamine B assay relative to control; format: functional; settings: RPMI-8226, 48 h, read-out: Activity
[30] = read-out: LC50 (the source's name)
[31] = read-out: pLC50 (the source's name) (converted)

Structure (SMILES): COc1cc(Cl)cc(-c2nn(-c3cccc(NC(=O)Nc4ccc(Cl)c(C(F)(F)F)c4)c3)cc2-c2ccncc2)c1
- growth at 1 µM [1]: 69%
- growth at 0.1 µM [2]: 106%
- growth at 0.1 µM [3]: 99%
- growth at 0.01 µM [4]: 96%
- growth at 1 µM [5]: 43%
- growth at 0.01 µM [6]: 57%
- growth at 0.01 µM [7]: 57%
- GI50 ([8]; read-out: GI50): 3.15 µM
- CC50 [8, 30]: > 100 µM
- TGI ([8]; read-out: TGI): 95.5 µM
- GI50 ([8]; read-out: pGI50 (converted)): 3.16 µM
- CC50 [8, 31]: > 100 µM
- TGI ([8]; read-out: pTGI (converted)): 11.7 µM
- growth at 10 µM [9]: 37.5%
- growth at 0.01 µM [10]: 104%
- GI50 ([11]; read-out: GI50): 1.59 µM
- CC50 [11, 30]: 1.55 µM
- TGI ([11]; read-out: TGI): 49.3 µM
- GI50 ([11]; read-out: pGI50 (converted)): 1.91 µM
- CC50 [11, 31]: 18.6 µM
- TGI ([11]; read-out: pTGI (converted)): 2.95 µM
- growth at 0.01 µM [12]: 104%
- GI50 ([13]; read-out: GI50): 1.23 µM
- CC50 [13, 30]: > 100 µM
- TGI ([13]; read-out: TGI): 45.5 µM
- GI50 ([13]; read-out: pGI50 (converted)): 1.23 µM
- CC50 [13, 31]: > 100 µM
- TGI ([13]; read-out: pTGI (converted)): 4.68 µM
- IC50 [14]: 0.68 µM
- GI50 ([14]; read-out: GI50): 0.676 µM
- CC50 [14, 30]: 4.32 µM
- TGI ([14]; read-out: TGI): 10.6 µM
- GI50 ([14]; read-out: pGI50 (converted)): 0.676 µM
- CC50 [14, 31]: 46.8 µM
- TGI ([14]; read-out: pTGI (converted)): 10.7 µM
- GI50 ([15]; read-out: GI50): 1.55 µM
- CC50 [15, 30]: 55.2 µM
- TGI ([15]; read-out: TGI): 14 µM
- GI50 ([15]; read-out: pGI50 (converted)): 1.86 µM
- CC50 [15, 31]: 56.2 µM
- TGI ([15]; read-out: pTGI (converted)): 14.1 µM
- growth at 1 µM [16]: 83%
- growth at 0.01 µM [17]: 95%
- growth at 1 µM [18]: 100%
- growth at 0.1 µM [19]: 91%
- growth at 100 µM [20]: -82%
- growth at 1 µM [21]: 79%
- growth at 100 µM [22]: -79%
- growth at 0.1 µM [23]: 99%
- growth at 0.01 µM [24]: 103%
- growth at 0.1 µM [25]: 98%
- GI50 ([26]; read-out: GI50): 1.77 µM
- CC50 [26, 30]: > 100 µM
- TGI ([26]; read-out: TGI): 11.1 µM
- GI50 ([26]; read-out: pGI50 (converted)): 1.78 µM
- CC50 [26, 31]: > 100 µM
- TGI ([26]; read-out: pTGI (converted)): 11.2 µM
- growth at 100 µM [27]: -51%
- growth at 100 µM [28]: -58%
- growth at 100 µM [29]: -32%
